Assay results: patent US20100016392A1, “Pesticidal Aggregates” (priority 2006, published 2010)

Experiments:
[1] = cited from earlier work
[2] = Amount of pesticide incorporated into Sokalan PA-15/Arquad 18/50 aggregate; format: physicochemical; conditions: pesticide incorporated into aggregate with 1 equivalent Sokalan PA-15 and 2 equivalents Arquad 18/50
Protocol: […] of the active ingredient listed was placed into a 20 mL vial and 1 equivalent of a 1 molar sodium hydroxide solution added. The mixture was stirred until the active dissolved (0.5 or 1.0 gram of deionized water was added if necessary). One equivalent of Sokalan PA-15 (linear polyacrylic acid sodium salt with low molecular weight of 1200 g/mol) was added and the mixture mixed. 2 equivalents of Arquad 18/50 octadecyltrimethyl ammonium chloride (aqueous isopropanol solution) were added and the mixture was stirred using a vortex mixer. Using a process similar to that described in Example 2, the amount of pesticide incorporated into the aggregate was measured.

[3] = cited from earlier work; remark: listed apart in the source
[4] = Uptake of pesticide into the aggregate, UV-spectroscopy of the supernatant; format: physicochemical

In the case of Cc1c(COC(=O)[C@@H]2[C@H](/C=C(\Cl)C(F)(F)F)C2(C)C)cccc1-c1ccccc1 (racemic) [Bifenthrin], the “octanol/water partition coefficient log P” value [1] is listed as over 6.
With CCc1cnc(C2=NC(C)(C(C)C)C(=O)N2)c(C(=O)O)c1 (racemic) [Imazethapyr, (+/−)-2-[4,5-dihydro-4-methyl-4-(1-methylethyl)-5-oxo-1H-imidazol-2-yl]-5-ethyl-3-pyridinecarboxylic acid] the Percent a.i. [2] was 5.57.
For O=C(O)COc1ccc(Cl)cc1Cl [2,4-D, (2,4-dichlorophenoxy)acetic acid], the pKa [3] is listed as 2.9 and the Percent a.i. [2] is listed as 2.45.
Compound N#Cc1cc(Br)c(O)c(Br)c1 [Bromoxynil, 3,5-dibromo-4-hydroxybenzonitrile] has a Percent a.i. [2] of 4.34.
With O=C(O)c1nc(Cl)ccc1Cl [Clopyralid (Lontrel)] the Percent a.i. [2] was 3.46.
For CCOc1nc(F)cc2nc(S(=O)(=O)Nc3c(Cl)cccc3C(=O)OC)nn12 [Cloransulam-methyl], the pKa [3] is given as 5.4 and the Percent a.i. [2] is given as 5.11.
For COc1c(Cl)ccc(Cl)c1C(=O)O [Dicamba, 3,6-dichloro-2-methoxybenzoic acid], the pKa [3] is listed as 3 and the Percent a.i. [2] is listed as 3.77.
With CC1(C(=O)Nc2ccc(O)c(Cl)c2Cl)CCCCC1 [Fenhexamid] the Percent a.i. [2] was 4.47.
Compound CS(=O)(=O)NC(=O)c1cc(Oc2ccc(C(F)(F)F)cc2Cl)ccc1[N+](=O)[O-] [Fomesafen, 5-[2-chloro-4-(trifluoromethyl)phenoxy]-N-(methylsulfonyl)-2-nitrobenzamide] has a Percent a.i. [2] of 7.17.
Compound C=C1C[C@]23C[C@@]1(O)CC[C@H]2[C@@]12C=C[C@H](O)[C@@](C)(C(=O)O1)[C@H]2[C@@H]3C(=O)O [Gibberellic acid] has a Percent a.i. [2] of 6.28.
For O=C(O)CNCP(=O)(O)O [Glyphosate, N-(phosphonomethyl)glycine], the pKa [3] is given as 4.4 and the Percent a.i. [2] is given as 4.70.
O=C(NC(=O)c1c(F)cccc1F)Nc1cc(Cl)c(OC(F)(F)C(F)C(F)(F)F)cc1Cl (centres unmarked) [Lufenuron] showed a Percent a.i. [2] of 8.16.
Compound CS(=O)(=O)c1ccc(C(=O)C2C(=O)CCCC2=O)c([N+](=O)[O-])c1 [Mesotrione] has a Percent a.i. [2] of 6.21.
For COc1cc(OC)nc(NC(=O)NS(=O)(=O)c2ncccc2C(=O)N(C)C)n1 [Nicosulfuron], the pKa [3] is listed as 4.5 and the Percent a.i. [2] is listed as 6.96.
For C[C@@H](Oc1ccc(Oc2cnc3cc(Cl)ccc3n2)cc1)C(=O)O [Quizalofop-P], the pKa [3] is listed as over 3 and the Percent a.i. [2] is listed as 4.76.
In the case of Cc1nn(-c2cc(NS(C)(=O)=O)c(Cl)cc2Cl)c(=O)n1C(F)F [Sulfentrazone], the “Uptake of sulfentrazone in the aggregate” value ([4]; mixture: Atlox 550S 0.075, C14NBr 0.5, sulfentrazone 0.5 weight %) is reported as 74 w/w %, the “Uptake of sulfentrazone in the aggregate” value ([4]; mixture: Atlox 550S 0.15, C14NBr 0.7, sulfentrazone 0.5 weight %) is reported as 83 w/w % and the “Uptake of sulfentrazone in the aggregate” value ([4]; mixture: Atlox 550S 0.25, C14NBr 0.75, sulfentrazone 0.5 weight %) is reported as 77 w/w %. For the same compound, the “Uptake of sulfentrazone in the aggregate” value ([4]; mixture: Atlox 550S 0.5, C14NBr 1.25, sulfentrazone 0.5 weight %) was 90 w/w %, the “Uptake of sulfentrazone in the aggregate” value ([4]; mixture: REAX 88B 0.25, C14NBr 0.6, sulfentrazone 0.5 weight %) was 82 w/w % and the “Uptake of sulfentrazone in the aggregate” value ([4]; mixture: REAX 88B 0.30, C14NBr 0.8, sulfentrazone 0.5 weight %) was 92 w/w %. For the same compound, the “Uptake of sulfentrazone in the aggregate” value ([4]; mixture: REAX 88B 0.5, C14NBr 1.0, sulfentrazone 0.5 weight %) was 94 w/w %.
In the case of CCC(CC)Nc1c([N+](=O)[O-])cc(C)c(C)c1[N+](=O)[O-] [pendimethalin], the “octanol/water partition coefficient log P” value [1] is listed as 5.2.
